Measured values from ChEMBL document CHEMBL5370549, “Optimization and evaluation of pyridinyl vinyl sulfones as Nrf2 activator for the antioxidant and anti-inflammatory effects” (Eur J Med Chem, 2023).
The source made the active and inactive calls. No cut-off for these calls is given here.

What was measured:
Mus musculus = assay: Antiinflammatory activity against LPS-induced neuroinflammation C57BL/6N mouse model assessed as reduction of glial cell reactivity by measuring reduction in IBA1 expression in dentate gyrus at 20 mg/kg/day, po administered for 3 days followed by LPS administration for 7 days by immunofluorescence staining based analysis; assay type: functional, organism-based; details: time 10.0 day
BV-2 [1] = assay: Antiinflammatory activity against LPS-induced mouse BV-2 cells assessed as inhibition of IL-6 production at 0.1 to 3 uM pretreated for 6 hrs followed by LPS stimulation for 24 hrs by ELISA; assay type: functional, cell-based; details: dose 0.1-3 µM, time 30.0 hrs
[2] = target: T1, Nuclear factor erythroid 2-related factor 2 (Mus musculus) (UniProt Q60795); assay: Activation of Nrf2 in mouse BV-2 cells assessed as increase in GCLM protein expression at 3 uM measured after 48 hrs by immunoblot analysis; assay type: cell-based; details: filed as activator
T1 sequence (whole entry): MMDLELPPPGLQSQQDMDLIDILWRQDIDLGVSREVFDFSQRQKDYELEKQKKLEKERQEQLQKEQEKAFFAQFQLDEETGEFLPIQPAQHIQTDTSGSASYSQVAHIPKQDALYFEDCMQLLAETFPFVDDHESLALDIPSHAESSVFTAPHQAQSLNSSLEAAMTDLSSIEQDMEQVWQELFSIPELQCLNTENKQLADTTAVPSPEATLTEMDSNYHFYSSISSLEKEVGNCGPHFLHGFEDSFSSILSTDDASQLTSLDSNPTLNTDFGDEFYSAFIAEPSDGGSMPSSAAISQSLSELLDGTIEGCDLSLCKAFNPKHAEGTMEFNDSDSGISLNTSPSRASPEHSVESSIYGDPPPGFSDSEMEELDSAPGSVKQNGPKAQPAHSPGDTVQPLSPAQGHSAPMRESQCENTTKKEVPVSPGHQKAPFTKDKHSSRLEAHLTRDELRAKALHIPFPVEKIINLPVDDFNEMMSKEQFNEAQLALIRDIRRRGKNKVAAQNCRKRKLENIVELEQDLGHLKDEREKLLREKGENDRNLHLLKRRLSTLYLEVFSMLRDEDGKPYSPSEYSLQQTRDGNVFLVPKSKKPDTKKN

CYP2C19 = CYP2C19 (Homo sapiens, UniProt P33261); assay: Inhibition of CYP2C19 (unknown origin) assessed as enzyme activity at 10 uM relative to control; assay type: ADME; set-up: scale not given: the % may be the effect or the level left; details: read-out: Activity
CYP2C19, sequence (P33261 whole entry): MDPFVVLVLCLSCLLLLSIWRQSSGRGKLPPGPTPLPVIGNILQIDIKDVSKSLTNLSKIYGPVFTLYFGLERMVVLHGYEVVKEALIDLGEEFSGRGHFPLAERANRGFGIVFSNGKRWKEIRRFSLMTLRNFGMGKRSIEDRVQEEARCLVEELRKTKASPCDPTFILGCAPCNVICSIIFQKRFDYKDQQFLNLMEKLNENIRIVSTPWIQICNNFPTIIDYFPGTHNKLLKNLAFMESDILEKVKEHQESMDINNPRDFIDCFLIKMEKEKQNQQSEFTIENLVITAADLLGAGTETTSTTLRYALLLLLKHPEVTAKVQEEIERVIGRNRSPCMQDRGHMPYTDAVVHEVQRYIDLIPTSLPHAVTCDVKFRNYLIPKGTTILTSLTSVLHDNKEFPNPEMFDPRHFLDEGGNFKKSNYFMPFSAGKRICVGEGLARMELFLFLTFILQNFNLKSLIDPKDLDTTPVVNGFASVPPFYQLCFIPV

BV-2 [3] = assay: Antiinflammatory activity against LPS-induced mouse BV-2 cells assessed as inhibition of NOS2 mRNA expression at 0.1 to 3 uM pretreated for 6 hrs followed by LPS stimulation for 6 hrs by qRT-PCR analysis; assay type: functional, cell-based; details: dose 0.1-3 µM, time 12.0 hrs

SMILES: COc1cccnc1S(=O)(=O)/C=C/c1ncccc1Cl
- Activity (Mus musculus): Active
- Activity (BV-2 [1]): Active
- Activity [2]: Active
- activity at 10 µM (CYP2C19): 74.7%
- Activity (BV-2 [3]): Active
